Results on 17 compounds are retold here after patent US10821115B2, “Compounds that inhibit Mcl-1 protein” (priority 2017, dated 2020).

For test [1], the target named is recombinant human Mcl-1 (residues 171-327) / Bim interaction (Homo sapiens (Human), UniProt Q07820). The test can be described thus: biochemical. The settings on record: read-out: Mcl-1 HTRF IC50. The test is classed as binding. For orientation: Time-resolved FRET reads energy transfer from a long-lived donor to a nearby acceptor.
The subject of test [2] is human multiple myeloma cell line, OPM-2. The test can be described thus: Cell viability assay (OPM-2 10 FBS), CellTiter-Glo. The test is classed as cell-based. The essentials: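 Steps: plate cells at 3000/well in 10% FBS growth medium, add serially diluted compound, incubate 16 h at 37 °C with 5% CO2, add detection reagent and read luminescence after 25 min. A 4-parameter logistic model gives IC50.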

The mark [3] stands for this setting: TR-FRET, Mcl-1(171-327) / biotin-Bim (51-76).
Where [4] appears, read: Homo sapiens, OPM-2, 16 h, read-out: OPM-2 10% FBS IC50 IP, OPM-2 cells, 10% FBS, 16 h, CellTiter-Glo.
The mark [5] stands for this setting: 0.1 nM Mcl-1(171-327), 0.05 nM biotin-Bim (51-76).
Setting [6] is: Homo sapiens, OPM-2, 16 h, read-out: OPM-2 10% FBS IC50 IP, OPM-2 cells, 10% FBS, 16 h incubation.
[7] abbreviates: read-out: OPM-2 10% FBS IC50 IP, OPM-2 cells, 10% FBS, 16 h, CellTiter-Glo.

Where two headings read alike, the source gives them in different places.

Usually IC50 stands for the midpoint of a concentration-inhibition curve.

Sequence of recombinant human Mcl-1 (residues 171-327) / Bim interaction (Q07820 171-327): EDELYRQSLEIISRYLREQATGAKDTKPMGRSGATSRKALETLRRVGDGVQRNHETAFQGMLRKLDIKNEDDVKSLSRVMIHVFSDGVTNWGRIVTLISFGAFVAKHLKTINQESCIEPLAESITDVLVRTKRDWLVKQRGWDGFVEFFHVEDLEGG

Take `C[C@@H]1[C@@H](C)C/C=C/[C@@](O)(CCCO)[C@@H]2CC[C@H]2CN2C[C@@]3(CCCc4cc(Cl)ccc43)COc3ccc(cc32)C(=O)NS1(=O)=O` (stereo in doubt) [Example 100128]: the IC50 in test [1] (setting [3]) is 0.089 nM; in test [2] (setting [4]), 217 nM.

Take `COCCN(C)S(=O)(=O)C[C@]1(O)CCC[C@H](C)[C@@H](C)S(=O)(=O)NC(=O)c2ccc3c(c2)N(C[C@@H]2CC[C@H]21)C[C@@]1(CCCc2cc(Cl)ccc21)CO3` [Example 100165, 1-((1S,3′R,6′R,7′S,11′S,12′R)-6-chloro-7′-hydroxy-11′,12′-dimethyl-13′,13′-dioxido-15′-oxo-3,4-dihydro-2H-spiro[naphthalene-1,22′-[20]oxa[13]thia[1,14]diazatetracyclo [14.7.2.0~3,6~.0~19,24~]pentacosa[16,18,24]trien]-7′-yl)-N-(2-methoxyethyl)-N-methylmethanesulfonamide]: the IC50 in test [1] (setting [3]) was found to be 0.455 nM; in test [2] (setting [4]), 579 nM.

For `CO[C@@]1(CN2CCN3CCOC[C@@H]3C2)/C=C/C[C@H](C)[C@@H](C)S(=O)(=O)NC(=O)c2ccc3c(c2)N(C[C@@H]2CC[C@H]21)C[C@@]1(CCCc2cc(Cl)ccc21)CO3` [Example 56, (1S,3′R,6′R,7′S,8′E,11′S,12′R)-6-chloro-7′-((9aS)-hexahydropyrazino[2,1-c][1,4]oxazin-8(1H)-ylmethyl)-7′-methoxy-11′,12′-dimethyl-3,4-dihydro-2H,15′H-spiro[naphthalene-1,22′-[20]oxa[13]thia[1,14]diazatetracyclo [14.7.2.0~3,6~.0~19,24~]pentacosa[8,16,18,24]tetraen]-15′-one 13′,13′-dioxide], the values for the IC50 in test [1] (setting [5]) and in test [2] (setting [6]) were 0.083 nM and 79 nM, respectively.

In the case of `C[C@@H]1[C@@H](C)CCC[C@@](O)(Cc2nccs2)[C@@H]2CC[C@H]2CN2C[C@@]3(CCCc4cc(Cl)ccc43)COc3ccc(cc32)C(=O)NS1(=O)=O` (single isomer, unassigned) [Example 100251], the IC50 in test [1] (setting [3]) was 3.29 nM; in test [2] (setting [7]), 3730 nM.

As for `C[C@@H]1[C@@H](C)C/C=C/[C@@](O)(C#CCCN2CCOCC2)[C@@H]2CC[C@H]2CN2C[C@@]3(CCCc4cc(Cl)ccc43)COc3ccc(cc32)C(=O)NS1(=O)=O` (single isomer, unassigned) [Example 100017], the IC50 is 0.039 nM in test [1] (setting [3]) and 40 nM in test [2] (setting [7]).

Turning to `C[C@@H]1[C@@H](C)CCC[C@@](O)(CC#N)[C@@H]2CC[C@H]2CN2C[C@@]3(CCCc4cc(Cl)ccc43)COc3ccc(cc32)C(=O)NS1(=O)=O` (single isomer, unassigned) [Example 100081], the IC50 in test [1] (setting [3]) is 7.33 nM; in test [2] (setting [4]), 5930 nM.

For the compound `C[C@@H]1[C@@H](C)CCC[C@](O)(COCCN(C)C)[C@@H]2CC[C@H]2CN2C[C@@]3(CCCc4cc(Cl)ccc43)COc3ccc(cc32)C(=O)NS1(=O)=O` (stereo in doubt) [Example 100196], the results for the IC50 in test [1] (setting [3]) and in test [2] (setting [7]) were 0.461 nM and 358 nM, respectively.

In the case of `CO[C@H](C)[C@]1(OC)/C=C/C[C@H](C)[C@@H](C)S(=O)(=O)NC(=O)c2ccc3c(c2)N(C[C@@H]2CC[C@H]21)C[C@@]1(CCCc2cc(Cl)ccc21)CO3` [Example 100473, (1S,3′R,6′R,7′S,8′E,11′S,12′R)-6-chloro-7′-methoxy-7′-((1R)-1-methoxyethyl)-11′,12′-dimethyl-3,4-dihydro-2H,15′H-spiro[naphthalene-1,22′-[20]oxa[13]thia[1,14]diazatetracyclo [14.7.2.0~3,6~.0~19,24~]pentacosa[8,16,18,24]tetraen]-15′-one 13′,13′-dioxide], the IC50 in test [1] (setting [3]) was 0.974 nM; in test [2] (setting [7]) it was 178 nM.

Turning to `CO[C@]1(CN2CCN(CCF)CC2)/C=C/C[C@H](C)[C@@H](C)S(=O)(=O)NC(=O)c2ccc3c(c2)N(C[C@@H]2CC[C@H]21)C[C@@]1(CCCc2cc(Cl)ccc21)CO3` [Example 96, (1S,3′R,6′R,7′R,8′E,11′S,12′R)-6-chloro-7′-((4-(2-fluoroethyl)-1-piperazinyl)methyl)-7′-methoxy-11′,12′-dimethyl-3,4-dihydro-2H,15′H-spiro[naphthalene-1,22′-[20]oxa[13]thia[1,14]diazatetracyclo [14.7.2.0~3,6~.0~19,24~]pentacosa[8,16,18,24]tetraen]-15′-one 13′,13′-dioxide], the figures for the IC50 in test [1] (setting [5]) and in test [2] (setting [6]) were 0.114 nM and 111 nM, respectively.

In the case of `COCCO[C@@]1(C)/C=C/C[C@H](C)[C@@H](C)S(=O)(=O)NC(=O)c2ccc3c(c2)N(C[C@@H]2CC[C@H]21)C[C@@]1(CCCc2cc(Cl)ccc21)CO3` [Example 100466, (1S,3′R,6′R,7′S,8′E,11′S,12′R)-6-chloro-7′-(2-methoxyethoxy)-7′,11′,12′-trimethyl-3,4-dihydro-2H,15′H-spiro[naphthalene-1,22′-[20]oxa[13]thia[1,14]diazatetracyclo [14.2.0~3,6~.0~19,24~]pentacosa[8,16,18,24]tetraen]-15′-one 13′,13′-dioxide], the IC50 in test [1] (setting [3]) came out at 0.043 nM; in test [2] (setting [4]), 1440 nM.

Consider `CO[C@@]1(CN2CCN3C(=O)[C@H](C)OC[C@@H]3C2)/C=C/C[C@H](C)[C@@H](C)S(=O)(=O)NC(=O)c2ccc3c(c2)N(C[C@@H]2CC[C@H]21)C[C@@]1(CCCc2cc(Cl)ccc21)CO3` [Example 143, (1S,3′R,6′R,7′S,8′E,11′S,12′R)-6-chloro-7′-methoxy-11′,12′-dimethyl-7′-(((3S,9aS)-3-methyl-4-oxohexahydropyrazino[2,1-c][1,4]oxazin-8(1H)-yl)methyl)-3,4-dihydro-2H,15′H-spiro[naphthalene-1,22′-[20]oxa[13]thia[1,14]diazatetracyclo [14.7.2.0~3,6~.0~19,24~]pentacosa[8,16,18,24]tetraen]-15′-one 13′,13′-dioxide], for which the 50% inhibitory concentration (IC50) in test [1] (setting [5]) is 0.432 nM; in test [2] (setting [6]), 219 nM.

`COC[C@@H]1[C@@H](C)C/C=C/[C@@](CN2CCN3CCOC[C@@H]3C2)(OC)[C@@H]2CC[C@H]2CN2C[C@@]3(CCCc4cc(Cl)ccc43)COc3ccc(cc32)C(=O)NS1(=O)=O` [Example 184, (1S,3′R,6′R,7′R,8′E,11′S,12′S)-6-chloro-7′-((9aS)-hexahydropyrazino[2,1-c][1,4]oxazin-8(1H)-ylmethyl)-7′-methoxy-12′-(methoxymethyl)-11′-methyl-3,4-dihydro-2H,15′H-spiro[naphthalene-1,22′-[20]oxa[13]thia[1,14]diazatetracyclo [14.7.2.0~3,6~.0~19,24~]pentacosa[8,16,18,24]tetraen]-15′-one 13′,13′-dioxide]: the IC50 in test [1] (setting [5]) amounted to 0.068 nM; in test [2] (setting [6]) it was 17 nM.

Regarding `CO[C@@]1(CN2CCN(CC3COC3)CC2)/C=C/C[C@H](C)[C@@H](C)S(=O)(=O)NC(=O)c2ccc3c(c2)N(C[C@@H]2CC[C@H]21)C[C@@]1(CCCc2cc(Cl)ccc21)CO3` [Example 313, (1S,3′R,6′R,7′S,8′E,11′S,12′R)-6-chloro-7′-methoxy-11′,12′-dimethyl-7′-((4-(3-oxetanylmethyl)-1-piperazinyl)methyl)-3,4-dihydro-2H,15′H-spiro[naphthalene-1,22′-[20]oxa[13]thia[1,14]diazatetracyclo [14.7.2.0~3,6~.0~19,24~]pentacosa[8,16,18,24]tetraen]-15′-one 13′,13′-dioxide], the IC50 in test [1] (setting [5]) turned out to be 0.225 nM; in test [2] (setting [6]), 131 nM.

In the case of `CO[C@@]1(CN2CCN3CCCC[C@@H]3C2)/C=C/[C@H](C)[C@H](C)CS(=O)(=O)NC(=O)c2ccc3c(c2)N(C[C@@H]2CC[C@H]21)C[C@@]1(CCCc2cc(Cl)ccc21)CO3` [Example 163, (1S,3′R,6′R,7′S,8′E,10′S,11′S)-6-chloro-7′-methoxy-10′,11′-dimethyl-7′-((9aR)-octahydro-2H-pyrido[1,2-a]pyrazin-2-ylmethyl)-3,4-dihydro-2H,15′H-spiro[naphthalene-1,22′-[20]oxa[13]thia[1,14]diazatetracyclo [14.7.2.0~3,6~.0~19,24~]pentacosa[8,16,18,24]tetraen]-15′-one 13′,13′-dioxide], the figures for the half-maximal inhibitory concentration (IC50) in test [1] (setting [5]) and in test [2] (setting [6]) were 0.179 nM and 130 nM, respectively.

In the case of `CCO[C@]1(CN2CCN(C3COC3)CC2)/C=C/C[C@H](C)[C@@H](COC)S(=O)(=O)NC(=O)c2ccc3c(c2)N(C[C@@H]2CC[C@H]21)C[C@@]1(CCCc2cc(Cl)ccc21)CO3` [Example 175], the IC50 in test [1] (setting [5]) is 0.069 nM; in test [2] (setting [6]), 64 nM.

Turning to `CO[C@]1(CN2C[C@H]3C[C@@H]2CN3C(C)C)/C=C/C[C@H](C)[C@@H](C)S(=O)(=O)NC(=O)c2ccc3c(c2)N(C[C@@H]2CC[C@H]21)C[C@@]1(CCCc2cc(Cl)ccc21)CO3` [Example 314, (1S,3′R,6′R,7′R,8′E,11′S,12′R)-6-chloro-7′-methoxy-11′,12′-dimethyl-7′-(((1R,4R)-5-(1-methylethyl)-2,5-diazabicyclo[2.2.1]hept-2-yl)methyl)-3,4-dihydro-2H,15′H-spiro[naphthalene-1,22′-[20]oxa[13]thia[1,14]diazatetracyclo [14.7.2.0~3,6~.0~19,24~]pentacosa[8,16,18,24]tetraen]-15′-one 13′,13′-dioxide], the half-inhibitory concentration (IC50) in test [1] (setting [5]) amounted to 0.118 nM; in test [2] (setting [6]), 126 nM.

Regarding `CO[C@@]1(CSC(C)C)/C=C/C[C@H](C)[C@@H](C)S(=O)(=O)NC(=O)c2ccc3c(c2)N(C[C@@H]2CC[C@H]21)C[C@@]1(CCCc2cc(Cl)ccc21)CO3` [Example 100441, (1S,3′R,6′R,7′S,8′E,11′S,12′R)-6-chloro-7′-methoxy-11′,12′-dimethyl-7′-((2-propanylsulfanyl)methyl)-3,4-dihydro-2H,15′H-spiro[naphthalene-1,22′-[20]oxa[13]thia[1,14]diazatetracyclo [14.7.2.0~3,6~.0~19,24~]pentacosa[8,16,18,24]tetraen]-15′-one 13′,13′-dioxide], the IC50 in test [1] (setting [3]) turned out to be 0.133 nM; in test [2] (setting [4]) it was 154 nM.
